Patent US12421211B2, “Heterocyclic compounds” (Hoffmann-La Roche Inc., priority 2021, dated 2025)
Counter-ions that a name gives are not always drawn.

System: Acinetobacter baumannii ATCC17961
Assay: Antimicrobial susceptibility testing: 90% growth inhibitory concentration (IC90) determination
Type: cell-based
Details: 90% growth inhibitory concentration, Acinetobacter baumannii ATCC17961, Iso-Sensitest broth, OD 600 nm over 16 h; formic acid; formate; read-out: ATCC 17961 IC90
Summary of the method: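 Growth inhibition derived in log phase from OD600 kinetics (every 20 minutes, 16h, 35±2° C) of ATCC17961 in Iso-Sensitest medium, inoculum ~5×10^5 CFU/ml. Compounds tested as twofold series, 10 points (e.g. 50 to 0.097 μM final); IC90 and IC50 reported.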

| SMILES | IC90 |
| --- | --- |
| COCCn1ncc(-c2ccc(-c3cnc(C(=O)Nc4ccc(C(=O)N5CCN(C(=O)C6CC[N+](CC(=O)O)(CC7CNC7)CC6)CC5)c(Cl)c4)n3C)c(F)c2F)c1C (stereo not shown) [Example B29, 2-[1-(azetidin-3-ylmethyl)-4-[4-[2-chloro-4-[[5-[2,3-difluoro-4-[1-(2-methoxyethyl)-5-methyl-pyrazol-4-yl]phenyl]-1-methyl-imidazole-2-carbonyl]amino]benzoyl]piperazine-1-carbonyl]piperidin-1-ium-1-yl]acetic acid; formic acid; formate] | 340 nM |

Same assay, conditions: Acinetobacter baumannii, ATCC17961, 16 h, 90% growth inhibitory concentration, Acinetobacter baumannii ATCC17961, Iso-Sensitest broth, OD 600 nm over 16 h; read-out: ATCC 17961 IC90

| SMILES | IC90 |
| --- | --- |
| COCCn1ncc(-c2ccc(-c3cnc(C(=O)Nc4ccc(C(=O)N5CCC(C(=O)N6CC[N+](CC(=O)O)(CC7CNC7)CC6)CC5)c(Cl)c4)n3C)c(F)c2F)c1C [Example B22, 2-[1-(azetidin-3-ylmethyl)-4-[1-[2-chloro-4-[[5-[2,3-difluoro-4-[1-(2-methoxyethyl)-5-methyl-pyrazol-4-yl]phenyl]-1-methyl-imidazole-2-carbonyl]amino]benzoyl]piperidine-4-carbonyl]piperazin-1-ium-1-yl]acetic acid; formate] | 330 nM |
| COCCn1ncc(-c2ccc(-c3cnc(C(=O)Nc4ccc(C(=O)N5CCC(C(=O)N6CC[N+](C)(C)CC6)CC5)c(Cl)c4)n3C)c(F)c2F)c1C [Example A10, N-[3-chloro-4-[4-(4,4-dimethylpiperazin-4-ium-1-carbonyl)piperidine-1-carbonyl]phenyl]-5-[2,3-difluoro-4-[1-(2-methoxyethyl)-5-methyl-pyrazol-4-yl]phenyl]-1-methyl-imidazole-2-carboxamide; formate] | 98 nM |

The remaining lines, values ahead:

| IC90 | SMILES |
| --- | --- |
| 61 nM | Cc1n[nH]cc1-c1ccc(-c2cnc(C(=O)Nc3ccc(C(=O)N4CCN(C(=O)CCC[N+](CCCN)(CCCN)CC(=O)O)CC4)c(Cl)c3)n2C)c(F)c1F [Example D41, bis(3-aminopropyl)-(carboxymethyl)-[4-[4-[2-chloro-4-[[5-[2,3-difluoro-4-(3-methyl-1H-pyrazol-4-yl)phenyl]-1-methyl-imidazole-2-carbonyl]amino]benzoyl]piperazin-1-yl]-4-oxo-butyl]ammonium; formic acid; formate] |
| 110 nM | Cc1n[nH]cc1-c1ccc(-c2cnc(C(=O)Nc3ccc(C(=O)N4CCN(C(=O)CN(C)C)CC4)c(Cl)c3)n2C)c(F)c1F [Example D34, N-[3-chloro-4-[4-[2-(dimethylamino)acetyl]piperazine-1-carbonyl]phenyl]-5-[2,3-difluoro-4-(3-methyl-1H-pyrazol-4-yl)phenyl]-1-methyl-imidazole-2-carboxamide; formic acid] |
| 340 nM | COCCCn1cc(-c2ccc(-c3cnc(C(=O)Nc4ccc(C(=O)N5CCN(C(=O)[C@@H]6COCC[N+]6(C)C)CC5)c(Cl)c4)n3C)c(F)c2F)c(C)n1 [Example D13, N-[3-chloro-4-[4-[(3S)-4,4-dimethylmorpholin-4-ium-3-carbonyl]piperazine-1-carbonyl]phenyl]-5-[2,3-difluoro-4-[1-(3-methoxypropyl)-3-methyl-pyrazol-4-yl]phenyl]-1-methyl-imidazole-2-carboxamide; formate] |
| 250 nM | Cc1cc(N)cnc1-c1ccc(-c2cnc(C(=O)Nc3ccc(C(=O)N4CCN(C(=O)C5CC[N+](C)(C)CC5)CC4)c(Cl)c3)n2C)c(F)c1F [Example F64, 5-[4-(5-amino-3-methyl-2-pyridyl)-2,3-difluoro-phenyl]-N-[3-chloro-4-[4-(1,1-dimethylpiperidin-1-ium-4-carbonyl)piperazine-1-carbonyl]phenyl]-1-methyl-imidazole-2-carboxamide; formate] |
| 190 nM | Cc1nn(CCNC(=O)c2ccccn2)cc1-c1ccc(-c2cnc(C(=O)Nc3ccc(C(=O)N4CCN(C(=O)C5CC[N+](C)(C)CC5)CC4)c(Cl)c3)n2C)c(F)c1F [Example H2, N-[2-[4-[4-[2-[[3-chloro-4-[4-(1,1-dimethylpiperidin-1-ium-4-carbonyl)piperazine-1-carbonyl]phenyl]carbamoyl]-3-methyl-imidazol-4-yl]-2,3-difluoro-phenyl]-3-methyl-pyrazol-1-yl]ethyl]pyridine-2-carboxamide; formate] |
| 750 nM | COCCn1ncc(-c2ccc(-c3cnc(C(=O)Nc4ccc(C(=O)N5CCN(C(=O)C6CC[N+](C)(C)CC6)CC5)c(Cl)c4)n3C)c(OC)c2F)c1C [Example F23, N-[3-chloro-4-[4-(1,1-dimethylpiperidin-1-ium-4-carbonyl)piperazine-1-carbonyl]phenyl]-5-[3-fluoro-2-methoxy-4-[1-(2-methoxyethyl)-5-methyl-pyrazol-4-yl]phenyl]-1-methyl-imidazole-2-carboxamide; formate] |
| 29 nM | COCCn1ncc(-c2ccc(-c3cnc(C(=O)Nc4ccc(C(=O)N[C@H]5[C@@H]6CN(C(=O)N[C@@H]7C[N+](C)(C)C[C@H]7O)C[C@@H]65)c(Cl)c4)n3C)c(F)c2F)c1C [Example F66, (1S,5R)-6-[[2-chloro-4-[[5-[2,3-difluoro-4-[1-(2-methoxyethyl)-5-methyl-pyrazol-4-yl]phenyl]-1-methyl-imidazole-2-carbonyl]amino]benzoyl]amino]-N-[(3R,4R)-4-hydroxy-1,1-dimethyl-pyrrolidin-1-ium-3-yl]-3-azabicyclo[3.1.0]hexane-3-carboxamide; formate] |
| 67 nM | COCCn1ncc(-c2ccc(-c3cnc(C(=O)Nc4ccc(C(=O)N5CCN(C(=O)C6CC[N+](C)(C)CC6)CC5)c(Cl)c4)n3C)c(F)c2F)c1Cl [Example F31, N-[3-chloro-4-[4-(1,1-dimethylpiperidin-1-ium-4-carbonyl)piperazine-1-carbonyl]phenyl]-5-[4-[5-chloro-1-(2-methoxyethyl)pyrazol-4-yl]-2,3-difluoro-phenyl]-1-methyl-imidazole-2-carboxamide; formate] |
| 88 nM | Cc1n[nH]cc1-c1ccc(-c2cnc(C(=O)Nc3ccc(C(=O)N4CCN(C(=O)[C@@H]5C[C@@H](O)CN5)CC4)c(Cl)c3)n2C)c(F)c1F [Example D36, N-[3-chloro-4-[4-[(2S,4R)-4-hydroxypyrrolidine-2-carbonyl]piperazine-1-carbonyl]phenyl]-5-[2,3-difluoro-4-(3-methyl-1H-pyrazol-4-yl)phenyl]-1-methyl-imidazole-2-carboxamide] |
| 1100 nM | COCCn1nc(C)c(-c2ccc(-c3cnc(C(=O)Nc4ccc(C(=O)N5CCN(C(=O)C6CC[N+](C)(C)CC6)CC5)c(Cl)c4)n3C)c(F)n2)c1C [Example F67, N-[3-chloro-4-[4-(1,1-dimethylpiperidin-1-ium-4-carbonyl)piperazine-1-carbonyl]phenyl]-5-[2-fluoro-6-[1-(2-methoxyethyl)-3,5-dimethyl-pyrazol-4-yl]-3-pyridyl]-1-methyl-imidazole-2-carboxamide; formate] |

Same assay, conditions: Acinetobacter baumannii, ATCC17961, 16 h, read-out: ATCC 17961 IC90

| SMILES | IC90 |
| --- | --- |
| COCCn1cc(-c2ccc(-c3cnc(C(=O)Nc4ccc(C(=O)N5CCN(C(=O)[C@H]6CC[N@+](CC(=O)O)(CC7CNC7)CC6)CC5)c(Cl)c4)n3C)c(F)c2F)c(C)n1 [Example Q4, cis 2-[1-(azetidin-3-ylmethyl)-4-[4-[2-chloro-4-[[5-[2,3-difluoro-4-[1-(2-methoxyethyl)-3-methyl-pyrazol-4-yl]phenyl]-1-methyl-imidazole-2-carbonyl]amino]benzoyl]piperazine-1-carbonyl]piperidin-1-ium-1-yl]acetic acid formate;] | 195 nM |
| COCCn1ncc(-c2ccc(-c3cnc(C(=O)Nc4ccc(C(=O)N5CCN(C(=O)C[N+]6(C)CCC(O)C6)CC5)c(Cl)c4)n3C)c(F)c2F)c1C (stereo not shown) [Example C1, N-[3-chloro-4-[4-[2-(3-hydroxy-1-methyl-pyrrolidin-1-ium-1-yl)acetyl]piperazine-1-carbonyl]phenyl]-5-[2,3-difluoro-4-[1-(2-methoxyethyl)-5-methyl-pyrazol-4-yl]phenyl]-1-methyl-imidazole-2-carboxamide; formate] | 45 nM |
| Cc1n[nH]cc1-c1ccc(-c2cnc(C(=O)Nc3ccc(C(=O)N4CCN(C(=O)C5CCC[N+]5(C)CCO)CC4)c(Cl)c3)n2C)c(F)c1F (stereo not shown) [Example B35, N-[3-chloro-4-[4-[1-(2-hydroxyethyl)-1-methyl-pyrrolidin-1-ium-2-carbonyl]piperazine-1-carbonyl]phenyl]-5-[2,3-difluoro-4-(3-methyl-1H-pyrazol-4-yl)phenyl]-1-methyl-imidazole-2-carboxamide; 2,2,2-trifluoroacetate] | 130 nM |
| Cc1c(-c2cnc(C(=O)Nc3ccc(C(=O)N4CCN(C(=O)C5CC[N+](CC(=O)O)(CC6CNC6)CC5)CC4)c(Cl)c3)n2C)ccc(-c2cnn(CCOC(F)F)c2C)c1F (stereo not shown) [Example N2, 2-[1-(azetidin-3-ylmethyl)-4-[4-[2-chloro-4-[[5-[4-[1-[2-(difluoromethoxy)ethyl]-5-methyl-pyrazol-4-yl]-3-fluoro-2-methyl-phenyl]-1-methyl-imidazole-2-carbonyl]amino]benzoyl]piperazine-1-carbonyl]piperidin-1-ium-1-yl]acetic acid; formate] | 183 nM |
| COCCn1cc(-c2ccc(-c3cnc(C(=O)Nc4ccc(C(=O)N5CCN(C(=O)C[N+]6(C)CC[C@H](O)C6)CC5)c(Cl)c4)n3C)c(F)c2F)c(C)n1 (stereo partly drawn) [Example C9, N-[3-chloro-4-[4-[2-[(3S)-3-hydroxy-1-methyl-pyrrolidin-1-ium-1-yl]acetyl]piperazine-1-carbonyl]phenyl]-5-[2,3-difluoro-4-[1-(2-methoxyethyl)-3-methyl-pyrazol-4-yl]phenyl]-1-methyl-imidazole-2-carboxamide; formate] | 260 nM |
| COCCn1ncc(-c2ccc(-c3cnc(C(=O)Nc4ccc(C(=O)N5CCN(C(=O)C6CCN(CCS(N)(=O)=O)CC6)CC5)c(Cl)c4)n3C)c(F)c2F)c1C [Example B33, N-[3-chloro-4-[4-[1-(2-sulfamoylethyl)piperidine-4-carbonyl]piperazine-1-carbonyl]phenyl]-5-[2,3-difluoro-4-[1-(2-methoxyethyl)-5-methyl-pyrazol-4-yl]phenyl]-1-methyl-imidazole-2-carboxamide] | 820 nM |
